Test system: Phi6 bacteriophage virus
Test: Static detergent-based virus inactivation, infectivity by plaque assay
Format: cell-based
Settings: mAb 15 mg/mL, 22-25° C.; for Time to Complete Inactivation: Phi6
Experimental: The purpose of this study was to examine detergent-based virus inactivation kinetics. In this representative experiment, two different concentrations (0.1% and 1.0% v/v) of a detergent, Triton X-100 were used to inactivate a bacteriophage virus, Phi6. The objective was to determine the exposure time required for complete inactivation.
A monoclonal antibody was purified by standard Protein A chromatography and prepared at a concentration of 15 mg/mL. The virus spike was added and vortexed to ensure a well-mixed system. The Phi6 target spike level was 1×10^8 pfu/mL. Detergent was added to reach the desired concentrations of 0.1% and 1.0% v/v. At various time points, a sample was removed and quenched by adding it to buffer at a 1:1000 dilution ratio. The tubes were vortexed after the detergent addition. These experiments were carried out at room temperature, 22-25° C. Control samples at the initial and final time points were also analyzed. The control samples were diluted similarly to the actual samples using the background buffer.

Triton X-100
≤1 min: Time to Complete Inactivation (0.1% v/v Triton X-100) | Time to Complete Inactivation (1.0% v/v Triton X-100)
≤ 1 min: Time to Complete Inactivation (0.1% v/v Triton X-100, listed as Triton X100) | Time to Complete Inactivation (1.0% v/v Triton X-100, listed as Triton X100)
≥5.2: Phi6 LRV (0.1% v/v Triton X-100, inactivation time 1 min) | Phi6 LRV (0.1% v/v Triton X-100, inactivation time 2 min) | Phi6 LRV (0.1% v/v Triton X-100, inactivation time 3 min) | Phi6 LRV (0.1% v/v Triton X-100, inactivation time 4 min) | Phi6 LRV (0.1% v/v Triton X-100, inactivation time 5 min) | Phi6 LRV (0.1% v/v Triton X-100, inactivation time 15 min) | Phi6 LRV (0.1% v/v Triton X-100, inactivation time 30 min)
≥6.2: Phi6 LRV (1.0% v/v Triton X-100, inactivation time 1 min) | Phi6 LRV (1.0% v/v Triton X-100, inactivation time 2 min) | Phi6 LRV (1.0% v/v Triton X-100, inactivation time 3 min) | Phi6 LRV (1.0% v/v Triton X-100, inactivation time 4 min) | Phi6 LRV (1.0% v/v Triton X-100, inactivation time 5 min) | Phi6 LRV (1.0% v/v Triton X-100, inactivation time 15 min) | Phi6 LRV (1.0% v/v Triton X-100, inactivation time 30 min)

Reference: patent US11547957B2, “Method of maintaining narrow residence time distributions in continuous flow systems” (EMD Millipore Corporation, priority 2017, dated 2023)
